Results taken from US20260216151A1, “GPR65 MODULATORS” (Pathios Therapeutics Limited, priority 2023, published 2026).

Molecular target: T1, human recombinant GPR65 (Homo sapiens, UniProt Q8IYL9)
T1 construct: host or cells: 1321N1 human astrocytoma cells (1321N1-hrGPR65)
Assay: Human GPR65 cAMP HTRF antagonist assay
Assay type: cell-based
Settings: 1321N1-hrGPR65 cells, assay pH 7.2, cAMP HTRF; read-out: hGPR65 IC50
Protocol: Human GPR65 Cyclic Adenosine Monophosphate (cAMP) Homogeneous Time Resolved Fluorescence (HTRF) Antagonist Assay Procedure
IC50 data was obtained by the following procedure:
1321N1 human astrocytoma cells stably expressing human recombinant GPR65 (1321N1-hrGPR65 cells, EuroscreenFast) were cultured according to the vendor's instructions.
Compounds were tested for their ability to antagonise GPR65, through measuring the concentration of cytoplasmic cAMP following treatment of the cells at a pH of 7.2 to activate GPR65 signalling and addition of the compound to be tested. The extent to which the expected rise in cAMP concentration upon GPR65 activation was suppressed by the added compound is indicative of its potency. The assay was carried out according to EuroscreenFast assay Methodology as follows.
On the day of the assay, test compounds were added to 384-well, low volume, white microtiter plates by acoustic dispensing. KRH buffer (5 mM KCl, 1.25 mM MgSO4, 124 mM NaCl, 25 mM HEPES, 13.3 mM Glucose, 1.25 mM KH2PO4 and 1.45 mM CaCl2) was adjusted to pH 6.5, pH 7.6 and pH 8.4 by adding NaOH. 1321N1-hGPR65 cells were rapidly thawed and diluted in KRH, pH 7.6 prior to centrifugation at 300×g for 5 min and resuspension in assay buffer (KRH, pH 7.6, supplemented with 1 mM 3-isobutyl-1-methylxanthine (IBMX) and 200 μM ethylenediaminetetraacetic acid (EDTA)). Cells were added to assay plates at a density of 2,000 cells per well in a volume of 5 μl. Assay plates were briefly centrifuged at 100×g and then incubated at room temperature for 30 min. Cells were stimulated by the addition of 5 μL KRH, pH 6.5, to achieve an assay pH of 7.2, while control wells received 5 μl KRH, pH 8.4 to achieve an assay pH of 7.9. Assay plates were briefly centrifuged at 100×g and then incubated at room temperature for 30 min.
Accumulation of cAMP was detected by cAMP HTRF kit (Cisbio). d2-labeled cAMP and cryptate-labeled anti-cAMP antibody in Lysis and Detection Buffer (Cisbio) were added to assay plates, and the plates were incubated at room temperature for 1 h. HTRF measurements were performed using a Pherastar FSX instrument. Acceptor and donor emission signals were measured at 665 nm and 620 nm, respectively, and HTRF ratios were calculated as signal665 nm/signal620 nm×10^4. Data were normalised to high and low control values and fitted with 4-parameter logistic regression to determine hGPR65 IC50 values for the test compounds, which are shown in Table 1.

T1 sequence (Q8IYL9 whole entry): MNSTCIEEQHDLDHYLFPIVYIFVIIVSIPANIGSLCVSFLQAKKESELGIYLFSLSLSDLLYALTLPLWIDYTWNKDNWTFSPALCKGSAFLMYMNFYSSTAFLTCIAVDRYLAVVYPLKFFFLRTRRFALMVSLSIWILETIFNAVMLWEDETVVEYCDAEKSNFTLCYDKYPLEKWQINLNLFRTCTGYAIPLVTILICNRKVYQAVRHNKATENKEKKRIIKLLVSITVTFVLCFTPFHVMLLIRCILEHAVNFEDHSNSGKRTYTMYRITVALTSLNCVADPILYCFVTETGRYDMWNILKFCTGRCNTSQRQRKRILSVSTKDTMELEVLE

| SMILES | IC50 |
| --- | --- |
| CC(C)COc1ccc(-c2cc(F)c(NC(=O)N3CCc4cc(=O)[nH]cc4C3)cc2Cl)cn1 [Compound 9, N-(5-Chloro-2-fluoro-4-(6-isobutoxypyridin-3-yl)phenyl)-6-oxo-3,4,6,7-tetrahydro-2,7-naphthyridine-2(1H)-carboxamide] | < 0.5 µM |
| COc1ccc(-c2cc(F)c(NC(=O)N3CCc4cc(=O)[nH]cc4C3)cc2Cl)cn1 [Compound 2, N-(5-Chloro-2-fluoro-4-(6-methoxypyridin-3-yl)phenyl)-6-oxo-3,4,6,7-tetrahydro-2,7-naphthyridine-2(1H)-carboxamide] | < 0.5 µM |
| O=C(Nc1cc(Cl)c(-c2cnc3nonc3c2)cc1F)N1CCc2cc(=O)[nH]cc2C1 [Compound 4, N-(4-([1,2,5]Oxadiazolo[3,4-b]pyridin-6-yl)-5-chloro-2-fluorophenyl)-6-oxo-3,4,6,7-tetrahydro-2,7-naphthyridine-2(1H)-carboxamide] | 0.5 to 5 µM |
| O=C(Nc1cc(Cl)c(-c2ccc3nonc3c2)cc1F)N1CCc2cc(=O)[nH]cc2C1 [Compound 1, N-(4-(Benzo[c][1,2,5]oxadiazol-5-yl)-5-chloro-2-fluorophenyl)-6-oxo-3,4,6,7-tetrahydro-2,7-naphthyridine-2(1H)-carboxamide] | < 0.5 µM |
| O=C(Nc1cc(Cl)c(-c2cnc3nonc3c2)cc1F)N1CCc2c(ccnc2F)C1 [Compound 5, N-(4-([1,2,5]Oxadiazolo[3,4-b]pyridin-6-yl)-5-chloro-2-fluorophenyl)-5-fluoro-3,4-dihydro-2,6-naphthyridine-2(1H)-carboxamide] | < 0.5 µM |
| O=C(Nc1cc(Cl)c(-c2ccc(OCC(F)(F)F)nc2)cc1F)N1CCc2cc(=O)[nH]cc2C1 [Compound 6, N-(5-Chloro-2-fluoro-4-(6-(2,2,2-trifluoroethoxy)pyridin-3-yl)phenyl)-6-oxo-3,4,6,7-tetrahydro-2,7-naphthyridine-2(1H)-carboxamide] | < 0.5 µM |
| O=C(Nc1cc(Cl)c(-c2ccc(F)nc2)cc1F)N1CCc2cc(=O)[nH]cc2C1 [Compound 3, N-(5-chloro-2-fluoro-4-(6-fluoropyridin-3-yl)phenyl)-6-oxo-3,4,6,7-tetrahydro-2,7-naphthyridine-2(1H)-carboxamide] | 0.5 to 5 µM |
| O=C(Nc1cc(Cl)c(-c2cc3nonc3cc2F)cc1F)N1CCc2cc(=O)[nH]cc2C1 [Compound 8, N-(5-Chloro-2-fluoro-4-(6-fluorobenzo[c][1,2,5]oxadiazol-5-yl)phenyl)-6-oxo-3,4,6,7-tetrahydro-2,7-naphthyridine-2(1H)-carboxamide] | < 0.5 µM |
| O=C(Nc1cc(Cl)c(-c2cc(F)c3nonc3c2)cc1F)N1CCc2cc(=O)[nH]cc2C1 [Compound 7, N-(5-Chloro-2-fluoro-4-(7-fluorobenzo[c][1,2,5]oxadiazol-5-yl)phenyl)-6-oxo-3,4,6,7-tetrahydro-2,7-naphthyridine-2(1H)-carboxamide] | < 0.5 µM |

Second part, the compound after the results:

| IC50 | SMILES |
| --- | --- |
| < 0.5 µM | O=C(Nc1cc(Cl)c(-c2ccnc(OCC(F)(F)F)c2)cc1F)N1CCc2cc(=O)[nH]cc2C1 [Compound 11, N-(5-Chloro-2-fluoro-4-(2-(2,2,2-trifluoroethoxy)pyridin-4-yl)phenyl)-6-oxo-3,4,6,7-tetrahydro-2,7-naphthyridine-2(1H)-carboxamide] |
| < 0.5 µM | O=C(Nc1cc(Cl)c(-c2ccc3nonc3c2)cc1F)N1CCc2cc(=O)[nH]nc2C1 [Compound 13, N-(4-(Benzo[c][1,2,5]oxadiazol-5-yl)-5-chloro-2-fluorophenyl)-3-oxo-2,5,6,8-tetrahydropyrido[3,4-c]pyridazine-7(3H)-carboxamide] |
| 0.5 to 5 µM | COc1cc(-c2ccc(OCC(F)(F)F)nc2)c(Cl)cc1NC(=O)N1CCc2cc(=O)[nH]cc2C1 [Compound 14, N-(5-chloro-2-methoxy-4-(6-(2,2,2-trifluoroethoxy)pyridin-3-yl)phenyl)-6-oxo-3,4,6,7-tetrahydro-2,7-naphthyridine-2(1H)-carboxamide] |
| 0.5 to 5 µM | Cc1cc(-c2ccc(OCC(F)(F)F)nc2)c(Cl)cc1NC(=O)N1CCc2cc(=O)[nH]cc2C1 [Compound 15, N-(5-Chloro-2-methyl-4-(6-(2,2,2-trifluoroethoxy)pyridin-3-yl)phenyl)-6-oxo-3,4,6,7-tetrahydro-2,7-naphthyridine-2(1H)-carboxamide] |
| > 5 µM | O=C(Nc1cc(Cl)c(-c2ccc(F)nc2)cc1OCc1ccccc1)N1CCc2cc(=O)[nH]cc2C1 [Compound 16, N-(2-(Benzyloxy)-5-chloro-4-(6-fluoropyridin-3-yl)phenyl)-6-oxo-3,4,6,7-tetrahydro-2,7-naphthyridine-2(1H)-carboxamide] |
| < 0.5 µM | O=C(Nc1cc(Cl)c(-c2ccc(OCC(F)(F)F)nc2)cc1F)N1CCc2cc(=O)[nH]nc2C1 [Compound 12, N-(5-Chloro-2-fluoro-4-(6-(2,2,2-trifluoroethoxy)pyridin-3-yl)phenyl)-3-oxo-2,5,6,8-tetrahydropyrido[3,4-c]pyridazine-7(3H)-carboxamide] |
| < 0.5 µM | O=C(Nc1cc(Cl)c(-c2cnc(OCC(F)(F)F)c(F)c2)cc1F)N1CCc2cc(=O)[nH]cc2C1 [Compound 10, N-(5-Chloro-2-fluoro-4-(5-fluoro-6-(2,2,2-trifluoroethoxy)pyridin-3-yl)phenyl)-6-oxo-3,4,6,7-tetrahydro-2,7-naphthyridine-2(1H)-carboxamide] |
